Measured values from US20130096160A1, “ARYLTHIAZOLYL PIPERIDINES AND RELATED COMPOUNDS AS MODULATORS OF SURVIVAL MOTOR NEURON (SMN) PROTEIN PRODUCTION” (Secretary, Department of Health and Human Services, priority 2010, published 2013).

Tested on: SMN2-luciferase reporter
Assay: SMN2-luciferase reporter qHTS assay
Assay type: cell-based, human
Parameters: key to Curve Class: A curve class of 1.1 is a full agonist/antagonist; a curve class of 4 indicates the compound is inactive
Settings: for Curve Class: agonist/antagonist character of the concentration-response, lower values = more significant concentration-response; for Increased SMN2 activity: percent increase (or decrease) in SMN2 levels compared to control in which no test compound is added
Source text: A cell-based quantitative high throughput screening (qHTS) assay is used to identify compounds able to increase SMN production. The assay uses a SMN2-luciferase reporter to determine if exon 7 of the SMN gene is expressed, which correlates with increased full-length SMN production from the SMN2 gene. As controls, a homologue SMN1-luciferase reporter cell line looks for variations in expression of the SMN1 gene and a cell line with just the luciferase reporter looks at the capacity of the compounds to inhibit luciferase. In addition, increments in SMN production by lead compounds were confirmed by Western-Blot analysis using SMA patient fibroblasts.
For the qHTS assay, concentration-response profiles are generated at the primary-screen level for each library compound to minimize the number of false positives. A dilution series consisting of seven points separated by five-fold concentration differences is prepared for each compound, yielding a concentration series that spans a range of about four orders of magnitude, for example from a high concentration of 50 micromolar to a low concentration of 3.2 nanomolar and providing adequate data for fitting to a Hill equation. For the assay, the SMN2 reporter cell line was plated at a density of ˜2000 cells/well in complete media (phenol red free DMEM, 10% detacl calf serum, and 1× pen/strep), in 1536 well white solid bottom tissue culture treated plates (Greiner). Cells were allowed to adhere and recover at 37 C in 5% CO2 for 10-12 hours. Compounds were added to the plates by a Pintool (Kalypsys) at a volume of 23 nl/well. Cells were incubated in the presence of compounds for 2 days at 37 C in 5% CO2. In order to quantify luciferase reporter levels, 3 ul/well of OneGlo (Promega) was added to each well and incubated at room temperature for 10 minutes. Luminescence from the reporter in each well is measured using a Viewlux CCD based imager (Perkin Elmer) with an integration time of 30 seconds and a binning of 2× in luminescence mode. Sodium butyrate was used as the positive control compound for luciferase induction and a column of 32 wells of 9.2 mM compound on each plate was used to monitor assay performance.
The SMN reporters used herein are modified from those previously described (M. L. Zhang, C. L. Lorson, E. J. Androphy and J. Zhou, An in vivo reporter system for measuring increased inclusion of exon 7 in SMN2 mRNA: potential therapy of SMA, Gene Ther 8 (2001), pp. 1532-1538.)
The sequence of the SMN1 reporter vector used herein is given in SEQ ID NO.:1, while that of the SMN2 reporter vector is given in SEQ ID NO.:2.
Each of the SMN reporters is constructed from three separate DNA fragments: (1) an SMN promotor sequence from the transcriptional reporter p 4.0T (SMN1) or p3.4C (SMN2) described in Monani, et al. Biochimica et Biophysica Acta 1445 (1999) 330-336; (2) a modification of the firefly luciferase splicing reporter for SMN1 or SMN2 described by Zhang et al; and (3) a 744 bp SMN cDNA fragment.
The 3.7 kB SMN1 promoter fragment is obtained by restriction of p4.0T with BglII and SacII. A 3.4 kB SMN2 promoter fragment is obtained by restriction of p3.4C with KpnI and SacII; a 300 bp BglII/KpnI fragment from p4.0T is then added to the 3.4 kB SMN2 promoter fragment to yield the final 3.7 kB SMN2 promoter fragment.
The modified SMN1 and SMN2 firefly luciferase splicing reporters are obtained by removing 4 kB of intron 6 in the original reporter system by restriction with SmaI/Swa followed by religation of the reporter. A 4 kB luciferase splicing reporter is then obtaind by digestion with XhoI and NotI.
Ths SMN cDNA fragment is obtained by generating the productof a polymerase chain reaction (PCR) on a cDNA preparation using […] (SEQ ID NO:3) as the forward primer and Tatctcgagtggtccagaaggaaatggaggcagcc (SEQ ID NO:4) as the reverse primer. The PCR product is then digested with XhoI and SacII. […]

Compound: CN(C)c1ccc(-c2csc(N3CCC(C(N)=O)CC3)n2)cc1 [Example 100, 1-(4-(4-(Dimethylamino)Phenyl)Thiazol-2-yl)Piperidine-4-Carboxamide]
- Curve Class: 2.2
- Increased SMN2 activity: 64.26%

Compound: CC(=O)c1ccc(-c2csc(N3CCC(C(N)=O)CC3)n2)cc1 [Example 45, 1-(4-(4-Acetylphenyl)Thiazol-2-yl)Piperidine-4-Carboxamide]
- Curve Class: 2.1
- Increased SMN2 activity: 130.4%

Compound: CN(C)c1cccc(-c2nnc(N3CCC(C(N)=O)CC3)s2)c1 [Example 132, 1-(5-(3-(Dimethylamino)Phenyl)-1,3,4-Thiadiazol-2-yl)Piperidine-4-Carboxamide]
- Curve Class: 1.1
- Increased SMN2 activity: 448.5%

Compound: NC(=O)C1CCN(c2nc(-c3ccc([N+](=O)[O-])cc3)cs2)CC1 [Example 29, 1-(4-(4-Nitrophenyl)Thiazol-2-yl)Piperidine-4-Carboxamide]
- Curve Class: 2.1
- Increased SMN2 activity: 254.3%

Compound: COc1ccc(-c2csc(N3CCC(C(N)=O)CC3)n2)cc1 [Example 25, 1-(4-(4-Methoxyphenyl)Thiazol-2-yl)Piperidine-4-Carboxamide]
- Curve Class: 2.1
- Increased SMN2 activity: 209.1%

Compound: COc1cccc(-c2csc(N3CCC(C(N)=O)CC3)n2)c1 [Example 35, 1-(4-(3-Methoxyphenyl)Thiazol-2-yl)Piperidine-4-Carboxamide]
- Curve Class: 1.1
- Increased SMN2 activity: 357%

Compound: CN(C)c1cccc(-c2ccnc(N3CCC(C(N)=O)CC3)n2)c1 [Example 90, 1-(4-(3-(Dimethylamino)Phenyl)Pyrimidin-2-yl)Piperidine-4-Carboxamide]
- Curve Class: 1.1
- Increased SMN2 activity: 446.3%

Compound: NC(=O)C1CCN(c2ncc(-c3ccc4c(c3)OCO4)s2)CC1 [Example 125, 1-(5-(Benzo[D][1,3]Dioxol-5-yl)Thiazol-2-yl)Piperidine-4-Carboxamide]
- Curve Class: 1.1
- Increased SMN2 activity: 589.875%

Compound: CC(C)COc1ccc(-c2csc(N3CCC(C(N)=O)CC3)n2)cc1 [Example 106, 1-(4-(4-Isobutoxyphenyl)Thiazol-2-yl)Piperidine-4-Carboxamide]
- Curve Class: 1.2
- Increased SMN2 activity: 54%

Compound: CC(C)Oc1ccc(-c2csc(N3CCC(C(N)=O)CC3)n2)cc1 [Example 91, 1-(4-(4-Isopropoxyphenyl)Thiazol-2-yl)Piperidine-4-Carboxamide]
- Curve Class: 1.1
- Increased SMN2 activity: 178.2%

Compound: NC(=O)C1CCN(c2nc(-c3ccc4c(c3)OCC4)cs2)CC1 [Example 93, 1-(4-(2,3-Dihydrobenzofuran-6-yl)Thiazol-2-yl)Piperidine-4-Carboxamide]
- Curve Class: 2.1
- Increased SMN2 activity: 401.7%

Compound: CN(C)c1cccc(-c2cnc(N3CCC(C(N)=O)CC3)nc2)c1 [Example 89, 1-(5-(3-(Dimethylamino)Phenyl)Pyrimidin-2-yl)Piperidine-4-Carboxamide]
- Curve Class: 1.1
- Increased SMN2 activity: 236.25%

Compound: NC(=O)C1CCN(c2nc(-c3ccccc3N)cs2)CC1 [Example 53, 1-(4-(2-Aminophenyl)Thiazol-2-yl)Piperidine-4-Carboxamide]
- Curve Class: 3
- Increased SMN2 activity: 79.57%

Compound: NC(=O)C1CCN(c2ncc(-c3cccc(N4CCOCC4)c3)s2)CC1 [Example 139, 1-(5-(3-Morpholinophenyl)Thiazol-2-yl)Piperidine-4-Carboxamide]
- Curve Class: 1.1
- Increased SMN2 activity: 275.2%

Compound: NC(=O)C1CCN(c2nc(-c3cccc(Cl)c3)cs2)CC1 [Example 34, 1-(4-(3-Chlorophenyl)Thiazol-2-yl)Piperidine-4-Carboxamide]
- Curve Class: 2.2
- Increased SMN2 activity: 53.23%

Compound: NC(=O)C1CCN(c2nc(-c3ccc4c(c3)OCO4)cs2)CC1 [Example 47, 1-(4-(Benzo[D][1,3]Dioxol-5-yl)Thiazol-2-yl)Piperidine-4-Carboxamide]
- Curve Class: 1.1
- Increased SMN2 activity: 359.16%

Compound: CN(C)c1cccc(-c2cc(N3CCC(C(N)=O)CC3)ncn2)c1 [Example 143, 1-(6-(3-(Dimethylamino)Phenyl)Pyrimidin-4-yl)Piperidine-4-Carboxamide]
- Curve Class: 2.1
- Increased SMN2 activity: 81.27%

Compound: CN(C)c1cccc(-c2ncc(F)c(N3CCC(C(N)=O)CC3)n2)c1 [Example 152, 1-(2-(3-(Dimethylamino)Phenyl)-5-Fluoropyrimidin-4-yl)Piperidine-4-Carboxamide]
- Curve Class: 1.1
- Increased SMN2 activity: 141.8%

Compound: NC(=O)C1CCN(c2nc(-c3ccccc3Cl)cs2)CC1 [Example 39, 1-(4-(2-Chlorophenyl)Thiazol-2-yl)Piperidine-4-Carboxamide]
- Curve Class: 2.2
- Increased SMN2 activity: 57.61%

Compound: NC(=O)C1CCN(c2ncc(-c3ccc4c(c3)OCCO4)s2)CC1 [Example 120, 1-(5-(2,3-Dihydrobenzo[B][1,4]Dioxin-6-yl)Thiazol-2-yl)Piperidine-4-Carboxamide]
- Curve Class: 1.1
- Increased SMN2 activity: 424.6%

Compound: CN(C)c1cccc(-c2ncnc(N3CCC(C(N)=O)CC3)n2)c1 [Example 145, 1-(4-(3-(Dimethylamino)Phenyl)-1,3,5-Triazin-2-yl)Piperidine-4-Carboxamide]
- Curve Class: 1.1
- Increased SMN2 activity: 199.9%

Compound: N#Cc1ccc(-c2csc(N3CCC(C(N)=O)CC3)n2)cc1 [Example 18, 1-(4-(4-Cyanophenyl)Thiazol-2-yl)Piperidine-4-Carboxamide]
- Curve Class: 2.2
- Increased SMN2 activity: 48.75%

Compound: CCOC(=O)C1CCN(c2ncc(-c3ccc4c(c3)OCCCO4)s2)CC1 [Example 146, Ethyl 1-(5-(3,4-Dihydro-2H-Benzo[B][1,4]Dioxepin-7-yl)Thiazol-2-yl)Piperidine-4-Carboxylate]
- Curve Class: 1.1
- Increased SMN2 activity: 319.6%

Compound: NC1CCN(c2nc(-c3ccc(Br)cc3)cs2)CC1 [Example 111, 1-(4-(4-Bromophenyl)Thiazol-2-yl)Piperidin-4-Amine]
- Curve Class: 1.1
- Increased SMN2 activity: 182.6%

Compound: NC(=O)C1CCN(c2nc(-c3cccs3)cs2)CC1 [Example 51, 1-(4-(Thiophen-2-yl)Thiazol-2-yl)Piperidine-4-Carboxamide]
- Curve Class: 2.2
- Increased SMN2 activity: 50.93%

Compound: Cn1ccc2cc(-c3csc(N4CCC(C(N)=O)CC4)n3)ccc21 [Example 65, 1-(4-(1-Methyl-1H-Indol-5-yl)Thiazol-2-yl)Piperidine-4-Carboxamide]
- Curve Class: 1.1
- Increased SMN2 activity: 534%

Compound: Brc1ccc(-c2csc(N3CCC(c4nnn[nH]4)CC3)n2)cc1 [Example 112, 2-(4-(1H-Tetrazol-5-yl)Piperidin-1-yl)-4-(4-Bromophenyl)Thiazole]
- Curve Class: 2.1
- Increased SMN2 activity: 66.77%

Compound: NC(=O)C1CCN(c2ncc(-c3ccc(Br)cc3)s2)CC1 [Example 87, 1-(5-(4-Bromophenyl)Thiazol-2-yl)Piperidine-4-Carboxamide]
- Curve Class: 1.1
- Increased SMN2 activity: 598.7%

Compound: CN(C)c1cccc(-c2cnc(N3CCC(c4ncc[nH]4)CC3)s2)c1 [Example 136, 3-(2-(4-(1H-Imidazol-2-yl)Piperidin-1-yl)Thiazol-5-yl)-N,N-Dimethylaniline]
- Curve Class: 1.1
- Increased SMN2 activity: 188.2%
